# Source: a melting point compilation (Tetko et al.; mined from patent text by program, amines drawn as free bases though some values may be those of a salt)
row,SMILES,melting point [°C]
1,CCOC(=O)COc1cc(-c2nn(C)c(C(F)(F)F)c2Cl)c(F)cc1Cl,130 to 131
2,CCN(CC)c1ccc2cc(-c3nc(C)c(C(=O)OC)s3)c(=O)oc2c1,252 to 253
3,Cc1cc(S(=O)(=O)N2CC(C)CC(C)C2)ccc1[N+](=O)[O-] (stereo not given),133 to 138
4,CC(C)OC(CC#N)=NC#N,66.5
5,O=C1CCC2=C(CCc3c(F)cccc32)N1,233 to 234
6,Cc1c(CCl)ncn1S(=O)(=O)N(C)C,115 to 118
7,COCN1C(C)=C(C(=O)OC)[C@H](c2cccc([N+](=O)[O-])c2)C(C(=O)OCOC(=O)C(C)(C)C)=C1C,113 to 114
8,CC(C)(C)c1cc(CCc2n[nH]c(=S)o2)cc(C(C)(C)C)c1O,164 to 166
9,CCN1C(=O)CC(C)(C)c2ccc(C#N)cc21,120 to 121
10,COc1ccc(Cl)cc1C(=O)NC1COc2cc(C)ccc2C1=O (stereo not given),177 to 178
11,CC(=O)Nc1nnc2c3c(c(N4CCCCC4)nn12)CCCC3,214 to 216
12,O=[N+]([O-])c1cc(Cl)ccc1NS(=O)(=O)c1ccc(Cl)cc1,122 to 123
13,O=c1c2c([nH]c3cn[nH]c13)CCCC2,> 325
14,CS(=O)(=O)C1(F)Cc2cc(Cl)ccc2C1=O (stereo not given),150
15,O=c1[nH][nH]c(=O)c2c(O)c3cccc(Cl)c3nc12,> 390
16,Cc1cccc(N2CCN(CCc3c(C)nc4ccc(C)cn4c3=O)CC2)c1,115 to 116
17,CCCCC(CC)Nc1cc(C)nc(Cl)c1N (stereo not given),139 to 140
18,CNS(=O)(=O)C1CN(C)c2cc(F)ccc2C1=O (stereo not given),134 to 136
19,O=C(Nc1ccncn1)Nc1cccc2c1C1CCCCN1C2=O (stereo not given),218
20,Oc1c(F)cc(Oc2ncc(C(F)(F)F)cc2F)cc1F,125 to 128
21,COc1ccc(N2CCN(NC(=S)NCC(OC)OC)CC2)cc1,157
22,COC(=O)C1CC(C#N)(c2ccc(OC)c3c2OC(C)(C)O3)CCC1=O (stereo not given),146 to 147
23,CC1CCC(N(CC2CCC(CN(C(=O)Nc3ccc(N4CCCCC4)cc3)C3CCC(C)CC3)CC2)C(=O)Nc2ccc(N3CCCCC3)cc2)CC1 (stereo not given),161 to 165
24,ClC(Cl)(Cl)C1OCc2ccccc2O1 (stereo not given),167 to 169
25,CCOC(=O)CCCC(=O)CNC(=O)c1csc(NC(=O)NCc2ccccn2)n1,110

row,SMILES,melting point [°C]
1,CCOC(=O)C(=CNc1cn[nH]c1)C(C)=O,126 to 128
2,CCOC(=O)c1ncc2[nH]c3ccc(I)cc3c2n1,264 to 266
3,CNC(=NC(=O)OC)N(C)C,80 to 85
4,COc1ccc2c(c1OC)CCC(NC(C)=O)C2O (stereo not given),184 to 186
5,COc1ccc(C(=O)Nc2ccc(C(=O)N3CCOCC3)cc2)cc1C12CC3CC(CC(C3)C1)C2,238 to 241
6,CN1C(=O)[C@@H](NC(=O)c2ccccc2I)N=C(c2ccccc2)c2ccccc21,115 to 120
7,O=c1c2cc(O)cc(O)c2cc2n1CCCC2,214 to 215
8,CNCC(=O)Nc1ccc(C2=NN(C(C)=O)C(C)Cc3cc4c(cc32)OCO4)cc1 (stereo not given),220 to 222
9,CCOC(=O)c1cnn(-c2ccc(Cl)c(Cl)c2)c1C#N,79 to 81
10,O=C1c2c(cccc2C(F)(F)F)-n2cnc(-c3noc(CN4Cc5ccccc5C4)n3)c2[C@@H]2CCN12,185 to 188
11,CCOC(=O)c1ncn2c1[C@@H]1CCCN1C(=O)c1cc(Cl)ccc1-2,242 to 244
12,CS(=O)(=O)c1ccc(C(CC2CCCC2)C(=O)O)cc1Cl (stereo not given),124 to 126
13,CCOC(=O)\C=C(C)/C=C/C=C(C)/C=C/C1=C(C)C[C@@H](O)CC1(C)C,93 to 95
14,CCCCCCCCCCC(O)C(O)CN (stereo not given),98 to 100
15,CCCN1CCN(CCCOc2ccc3nc(C#N)nc(NCC(C)(C)C)c3c2)CC1,102 to 104
16,COC(=O)C#CC(=O)c1ccc(OC)cc1,68
17,N#Cc1nc(Cl)c(-c2cccc(Cl)c2)nc1C#N,87 to 88
18,O=C(O)C(=O)c1ccc2c(c1)CCS2,122 to 123
19,Cn1c(C(F)(F)F)nnc1S(C)(=O)=O,96
20,CCCCC(C)(C)C=CC(OC(C)=O)C1C(C)CC2OC(=O)CC21 (stereo not given),83 to 83.5
21,CCc1nc2c(cnn2CC)c(NC2CCOCC2)c1CNC(=O)c1cccc(C(=O)NCc2ccc(F)c(-c3cccc(CN4CCN(C(C)C)CC4)c3)c2)c1,165 to 169
22,CCCCc1nc2c(O)ccc(CCN(C)C)c2[nH]1,97 to 105
23,N#Cc1c(N)cccc1N1CCCC1,112 to 114
24,COc1cc(OC)nc(NC(=O)NS(=O)(=O)c2ccccc2C(C)=O)n1,126 to 128

# Next, values leading:
row,melting point [°C],SMILES
1,54 to 56,CCCNC(=O)C1(CCCCCSc2nc3ccc(OCC)cc3s2)c2ccccc2-c2ccccc21
2,124 to 126,O=C(NCCN1CCCC1)Nc1ccc(-c2cnc(COCc3cc4ccccc4o3)o2)cc1
3,67 to 69,CC(=O)n1c(-c2ccc(C)cc2)cc2ccccc21
4,202 to 204,COC(=O)/C=C/c1cccc(-c2c(CC(=O)Nc3ccc(Cl)cc3C(F)(F)F)c(=O)oc3cc(Cl)c(C)cc23)c1
5,140 to 142,O=C(C1CCCCC1)N(CCN1CCN(CC(O)c2ccccc2)CC1)c1ccccn1 (stereo not given)
6,117 to 118,C=CCOc1ccccc1C=C(C=O)C(C=O)=Cc1ccccc1OCC=C
7,78 to 80,COc1cc(Nc2nccc(-c3cccc(NCc4cccnc4)c3)n2)cc(OC)c1OC
8,168,O=c1ncc(I)cn1COCc1ccc(Cl)cc1
9,288 to 292,O=c1[nH]c2cc(Cl)ccc2c(O)c1-c1cccc(Cc2ccc(O)cc2)c1
10,181 to 183,COc1ccc2c(c1)c(CC(=O)NO)c(C)n2C(=O)c1ccc(Cl)cc1
11,113 to 116,Cn1c2c(c3ccccc31)OCC2=O
12,154 to 155,OC(Cc1ccncc1)(c1ccccc1)c1ccccc1
13,121 to 123,Cc1c(-c2ccc(O)cc2)n(Cc2ccc(OCCN3CCCCC3C)cc2)c2ccc(O)cc12 (stereo not given)
14,131 to 133,CC1(C)CCC(C)(C)c2cc(Oc3ccc4c(CO)cccc4c3)ccc21
15,127 to 128,O=C(O)c1c(OCc2ccccc2)ccc2ccccc12
16,272 to 274,CCCCC1N=CC(CSc2ccccc2C(=O)O)(Cc2ccc(C(=O)O)c3ccccc23)N1 (stereo not given)
17,172,COCCNc1nccc(-c2ccnc(Nc3cccc(Cl)c3)n2)c1Cl
18,99 to 102,Cc1oc(-c2ccccc2)nc1CCOc1ccc(CNO)cc1
19,223 to 225,O=C(O)COc1cccc2c1CCc1sc(SCC(c3ccccc3)c3ccccc3)nc1-2
20,117 to 119,O=C1N(Cc2ccccn2)c2ccccc2C12COc1cc3[nH]ncc3cc12 (stereo not given)
21,123 to 124,CC(C)c1ccc2c(c1)c(SCC1CC1)c(CC(C)(C)C(=O)O)n2Cc1ccc(Cl)cc1
22,53 to 55,COc1c(C=O)cccc1Oc1ccccc1C
23,214,O=C(Cc1noc2ccccc12)N[C@H]1CC[C@H](CCN2CCC(c3cccc4c3CCO4)CC2)CC1
24,93 to 94,CCCCCCCCCCCCCCCCCCOc1cc(OCCOc2ccc3ccccc3c2)cc(C(=O)O)c1
25,279 to 283,Cc1[nH]c(=O)ccc1-c1ccc(O)c(N)c1
26,160 to 162,COc1ccc(-c2cc(F)c(F)cc2-c2ccc(S(C)(=O)=O)cc2)cc1C

row,melting point [°C],SMILES
1,198 to 200,O=C1N(N2CCOCC2)c2ccccc2C1(O)Cc1ccncc1 (stereo not given)
2,263,O=C(Nc1nnn[nH]1)c1ccc(OCCn2ccnc2)cc1
3,166,Cc1ccc(-c2occc2C(=O)O)cc1
4,112 to 115,CC(=O)OCc1ccc(N(c2ccccc2)c2ccc(C=CC=O)cc2)cc1
5,196 to 198,COc1ccc(N2C(=O)C(C)N(c3ccc(Oc4ccc(O)cc4)cc3)C2=S)cc1 (stereo not given)
6,210 to 211,CC(C)n1nc(-c2c(-c3ccccc3)nn3ccc(OC4CCOCC4)cc23)ccc1=O
7,64 to 66,O=[N+]([O-])c1ccccc1NCCNc1ccccc1
8,203 to 206,Nc1nc(-c2cc(Cl)ccc2Cl)nc(N2CCN(c3ccccc3)CC2)n1
9,158 to 160,COCCc1nc2c(N)nc3cc(-c4cccnc4)ccc3c2n1CC(C)(C)O
10,174 to 175,O=C(Nc1ccccc1F)N1CCc2cc(S(=O)(=O)N3CCN(c4cccc(Cl)c4)CC3)ccc21
11,146,CC(C)CC(NC(=O)OCc1ccccc1)C(=O)NC(C(=O)Nc1n[nH]c(=S)s1)C(C)C (stereo not given)
12,124 to 126,CCOC(=O)c1cnc2c(cnn2-c2ccccc2)c1N(Cc1ccccc1)S(=O)(=O)c1ccc(OC)cc1
13,141 to 142,CC(Oc1ccc(-c2ccc(Cl)cc2)cc1)(C(N)=O)C(F)(F)F (stereo not given)
14,134 to 136,Cc1c(-c2ccc(Cl)cc2)[nH]c2ccc(OCc3ccccc3)cc12
15,> 250,Nc1nc2ccccc2c2c1nc(O)n2Cc1cccnc1
16,139 to 140,CC(=O)NCc1ccc(CN2CCN(c3nc(Cl)cc(Cl)n3)CC2)cc1
17,244 to 246,Cc1ccc(-c2c(C3CCN(C)CC3)[nH]c(=O)c3ccccc23)cc1
18,201,Cc1ccc(C2=NC(O)(C(F)(F)F)CN2c2ccc(S(C)(=O)=O)cc2)cc1Cl (stereo not given)
19,113,O=C(OC(Cc1ccccc1)C(=O)O)c1ccccc1 (stereo not given)
20,97 to 111,Cc1cc(F)ccc1-c1ccc(S(=O)(=O)N2c3ccccc3CC2C(=O)NCCOc2cc(F)c(C(=O)O)c(F)c2)cc1 (stereo not given)
21,270 to 272,Cc1cc(-c2ccc(C(F)(F)F)cc2)nc2c(C(=O)Nc3cccc(S(N)(=O)=O)c3)cnn12
22,> 350,Cn1c(=O)c2nc(-c3ccc(/C=C/C(=O)O)cc3)[nH]c2n(Cc2ccc(C#N)cc2)c1=O
23,152 to 153,CC1(C)CCCc2cc(CC#Cc3ccc(C(=O)O)c(O)c3)ccc21
24,171 to 175,CCOC(=O)c1cnc(-c2ccccc2[N+](=O)[O-])[nH]c1=O
25,234 to 237,CC(Sc1ncnc2[nH]cnc12)c1oc2ccc(Br)cc2c(=O)c1-c1ccccc1 (stereo not given)
